ChEMBL document CHEMBL1201862, “PubChem BioAssay data set” (2004)
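Values below derive from 48-hour exposures of cells grown in 96-well plates, with endpoints linearly interpolated between the two concentrations bracketing the appropriate inhibition level. GI50: concentration for 50% inhibition of growth.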 Calls of active or inactive are those of the source. No stated cut-off is given here; in the data, active = GI50 up to about 1.1 µM and inactive = higher.

How the values were obtained:
Test in all cases: growth of human tumour cells (NCI), 48 h
A498 = tested on: A498
DU-145 = tested on: DU-145
HCC 2998 = tested on: HCC 2998
HCT-116 = tested on: HCT-116
HL-60 = tested on: HL-60
HOP-92 = tested on: HOP-92
HT-29 = tested on: HT-29
M14 = tested on: M14
MCF7 = tested on: MCF7
MDA-MB-435 = tested on: MDA-MB-435
MDA-N = tested on: MDA-N
Malme-3M = tested on: Malme-3M
NCI-H522 = tested on: NCI-H522
OVCAR-8 = tested on: OVCAR-8
SF-268 = tested on: SF-268
SF-295 = tested on: SF-295
SK-MEL-28 = tested on: SK-MEL-28
SN12C = tested on: SN12C
SR = tested on: SR
U-251 = tested on: U-251

Measured: GI50

CC(C)OC(=O)C1=C2c3ncccc3C(=O)N2[C@@H](Cl)[C@@H](Cl)[C@@H]1Cl
inactive: A498 > 100 µM | DU-145 > 100 µM | HCC 2998 > 100 µM | HCT-116 > 100 µM | HL-60 25.8 µM | HOP-92 > 100 µM | HT-29 > 100 µM | M14 > 100 µM | MCF7 84.3 µM | MDA-MB-435 > 100 µM | MDA-N 74.1 µM | Malme-3M > 100 µM | NCI-H522 35.6 µM | OVCAR-8 39.8 µM | SF-268 82.2 µM | SF-295 > 100 µM | SK-MEL-28 > 100 µM | SN12C 21.2 µM | SR 49.5 µM | U-251 > 100 µM

NC1=NC(NCC2(CO)CCC2)=CC(OCC2(CO)CCC2)N1 (stereo not given)
inactive: A498 > 100 µM | DU-145 > 100 µM | HCC 2998 > 100 µM | HCT-116 > 100 µM | HL-60 78.2 µM | HOP-92 > 100 µM | HT-29 > 100 µM | M14 > 100 µM | MCF7 > 100 µM | MDA-MB-435 > 100 µM | MDA-N > 100 µM | Malme-3M > 100 µM | NCI-H522 > 100 µM | OVCAR-8 > 100 µM | SF-268 > 100 µM | SF-295 > 100 µM | SK-MEL-28 > 100 µM | SN12C > 100 µM | SR 82.8 µM | U-251 > 100 µM

CCOC(=O)CCC(NC(=O)c1ccc(Oc2nc3ccccc3nc2-c2ccccc2)cc1)C(=O)OCC (stereo not given)
inactive: A498 > 50.1 µM | DU-145 41 µM | HCC 2998 > 100 µM | HCT-116 12.9 µM | HL-60 > 100 µM | HOP-92 5.51 µM | HT-29 2.48 µM | M14 > 62.1 µM | MCF7 > 100 µM | MDA-MB-435 > 52.1 µM | MDA-N 45 µM | Malme-3M 12.7 µM | NCI-H522 11.3 µM | OVCAR-8 3.55 µM | SF-268 6.79 µM | SF-295 23.1 µM | SK-MEL-28 50.6 µM | SN12C 30.3 µM | SR > 29.8 µM | U-251 15.1 µM

CCCCC(=O)OC[n+]1ccc(-c2c(COC(=O)NC(C)C)c(COC(=O)NC(C)C)c3n2CCC3)cc1
inactive: A498 23.9 µM | DU-145 > 70.5 µM | HCC 2998 > 100 µM | HCT-116 > 94.8 µM | HL-60 25.5 µM | HOP-92 > 84.1 µM | HT-29 > 76 µM | M14 > 77.4 µM | MCF7 50.8 µM | MDA-MB-435 > 100 µM | MDA-N > 100 µM | Malme-3M > 100 µM | NCI-H522 30.5 µM | OVCAR-8 > 100 µM | SF-268 57.9 µM | SF-295 > 76.2 µM | SK-MEL-28 > 100 µM | SN12C 40.3 µM | SR 10 µM | U-251 > 71.3 µM

COc1cc(-c2[o+]c3cc(O)cc(O)c3cc2O)cc(O)c1O
inactive: A498 > 100 µM | DU-145 > 100 µM | HCC 2998 35 µM | HCT-116 > 100 µM | HL-60 > 100 µM | HOP-92 > 100 µM | HT-29 > 100 µM | M14 > 100 µM | MCF7 21.3 µM | MDA-MB-435 19.4 µM | MDA-N 34.8 µM | Malme-3M > 100 µM | NCI-H522 66.5 µM | OVCAR-8 > 100 µM | SF-268 > 100 µM | SF-295 > 100 µM | SK-MEL-28 > 100 µM | SN12C > 100 µM | SR 96.6 µM | U-251 > 100 µM

COC(OC)(c1ccccc1)C(I)I
inactive: A498 > 10 µM | DU-145 24.5 µM | HCC 2998 23.1 µM | HCT-116 4.91 µM | HL-60 2 µM | HOP-92 13.4 µM | HT-29 15 µM | M14 5.37 µM | MCF7 18.7 µM | MDA-MB-435 4.37 µM | MDA-N 7.96 µM | Malme-3M 3.15 µM | NCI-H522 2.5 µM | OVCAR-8 17.9 µM | SF-268 19.3 µM | SF-295 22.8 µM | SK-MEL-28 16.1 µM | SN12C 20.1 µM | SR 2.04 µM | U-251 16.5 µM

CC(C)(C)OC(=O)NC(Cc1c[nH]cn1)C(=O)N1CCCC1C(N)=O (stereo not given)
inactive: A498 > 100 µM | DU-145 > 100 µM | HCC 2998 > 100 µM | HCT-116 > 100 µM | HL-60 > 100 µM | HOP-92 > 100 µM | HT-29 > 100 µM | M14 > 100 µM | MCF7 > 100 µM | MDA-MB-435 > 100 µM | MDA-N > 100 µM | Malme-3M > 100 µM | NCI-H522 > 100 µM | OVCAR-8 > 100 µM | SF-268 > 100 µM | SF-295 > 100 µM | SK-MEL-28 > 100 µM | SN12C > 100 µM | SR > 100 µM | U-251 > 100 µM

O=C1/C(=C\c2cccc(Oc3ccccc3)c2)SC(c2ccccc2)N1c1ccccc1 (stereo not given)
inactive: A498 > 100 µM | DU-145 > 100 µM | HCC 2998 > 100 µM | HCT-116 20.1 µM | HL-60 46.8 µM | HOP-92 60.7 µM | HT-29 26.4 µM | M14 71.6 µM | MCF7 30 µM | MDA-MB-435 33.7 µM | MDA-N 30.1 µM | Malme-3M > 100 µM | NCI-H522 17.1 µM | OVCAR-8 42.2 µM | SF-268 > 100 µM | SF-295 > 100 µM | SK-MEL-28 81.1 µM | SN12C > 100 µM | SR 11.9 µM | U-251 25.1 µM

N=C1CCCC1C(=S)SCCC(N)=O (stereo not given)
inactive: A498 > 100 µM | DU-145 > 100 µM | HCC 2998 > 100 µM | HCT-116 > 100 µM | HL-60 > 100 µM | HOP-92 > 100 µM | HT-29 > 100 µM | M14 > 100 µM | MCF7 > 100 µM | MDA-MB-435 > 100 µM | MDA-N > 100 µM | Malme-3M > 100 µM | NCI-H522 > 100 µM | OVCAR-8 > 100 µM | SF-268 > 100 µM | SF-295 > 100 µM | SK-MEL-28 > 100 µM | SN12C > 100 µM | SR 19.3 µM | U-251 > 100 µM

CCCC[C@H]1C(=O)O[C@H](C)[C@H](NC(=O)c2cccc(NC=O)c2OC)C(=O)O[C@@H](C)[C@@H]1OC(=O)C(C)CC.CCCC[C@H]1C(=O)O[C@H](C)[C@H](NC(=O)c2cccc(NC=O)c2OC)C(=O)O[C@@H](C)[C@@H]1OC(=O)CC(C)C (stereo not given in full)
inactive: A498 8.81 µM | DU-145 13.4 µM | HCC 2998 29 µM | HCT-116 12.1 µM | HL-60 10.6 µM | HOP-92 6.98 µM | HT-29 9.84 µM | M14 14.6 µM | MCF7 12.5 µM | MDA-MB-435 10.3 µM | MDA-N 17.6 µM | Malme-3M 15.8 µM | NCI-H522 8.51 µM | OVCAR-8 12.9 µM | SF-268 14.2 µM | SF-295 7.45 µM | SK-MEL-28 21.6 µM | SN12C 17.3 µM | SR 14.5 µM | U-251 9.46 µM
